# Test results from US7939534B2, “Certain chemical entities, compositions, and methods” (Cytokinetics, Inc., priority 2006, dated 2011).
# Target: T1, chicken gizzard smooth muscle myosin subfragment-1 chemically crosslinked to either cardiac or skeletal actin (Gallus gallus, UniProt P10587)
# T1 construct: chicken gizzard smooth muscle myosin subfragment-1; from tissue; host or cells: chicken gizzard
# Experiment: Dose dependent smooth muscle myosin ATPase modulation (pyruvate kinase/horseradish peroxidase/pyruvate oxidase-coupled ATPase assay)
# Assay type: biochemical
# Conditions: read-out: IC50 Arithmetic Mean
# Method in brief: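 Chicken gizzard smooth muscle myosin S1 crosslinked (EDC/NHS) to cardiac or skeletal actin, concentration titrated to a set ATPase rate. Pyruvate kinase/pyruvate oxidase/HRP-coupled assay, 0.15 mM ATP, 12 mM K-PIPES pH 7.00, 100 mM KCl, amplex red fluorescence; IC50 from 4-parameter fit.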
row,SMILES,IC50
1,"COC(=O)N1CCN(c2ccc(C(=O)NCc3cccnc3)c(NCCc3cccc(F)c3)n2)CC1 [Compound 85, methyl 4-(6-{[2-(3-fluorophenyl)ethyl]amino}-5-[N-(3-pyridylmethyl)carbamoyl]-2-pyridyl)piperazinecarboxylate]",1.53 µM
2,"NC1CCN(c2ccc(C(=O)NCc3cccnc3)c(NCCc3cccc(F)c3)n2)C1 (stereo not drawn) [Compound 86, (6-(3-aminopyrrolidinyl)-2-{[2-(3-fluorophenyl)ethyl]amino}(3-pyridyl))-N-(3-pyridylmethyl)carboxamide]",23.1 µM
3,"O=C(NCc1cccnc1)c1ccc(N2CCOCC2)nc1NCCc1cccc(F)c1 [Compound 87, (2-{[2-(3-fluorophenyl)ethyl]amino}-6-morpholin-4-yl(3-pyridyl))-N-(3-pyridylmethyl)carboxamide]",2.67 µM
4,"O=C(NCc1cccnc1)c1ccc(N2CCC[C@@H]2CO)nc1NCCc1cccc(F)c1 [Compound 88, (6-[(2R)-2-(hydroxymethyl)pyrrolidinyl]-2-{[2-(3-fluorophenyl)ethyl]amino}(3-pyridyl))-N-(3-pyridylmethyl)carboxamide]",10.5 µM
5,"CNC(=O)CNC(=O)c1ccc(N2CC[C@H](O)C2)nc1NCCc1cccc(F)c1 [Compound 89, 2-[(6-((3S)-3-hydroxypyrrolidinyl)-2-{[2-(3-fluorophenyl)ethyl]amino}(3-pyridyl))carbonylamino]-N-methylacetamide]",8.25 µM
6,"CNC(=O)CNC(=O)c1ccc(N2CCC(O)CC2)nc1NCCc1cccc(F)c1 [Compound 90, 2-[(2-{[2-(3-fluorophenyl)ethyl]amino}-6-(4-hydroxypiperidyl)(3-pyridyl))carbonylamino]-N-methylacetamide]",9.5 µM
7,"CC(C)(C)OC(=O)NC1CCN(c2ccc(C(=O)NCc3cccnc3)c(NCCc3cccc(F)c3)n2)C1 (stereo not drawn) [Compound 91, (tert-butoxy)-N-[1-(6-{[2-(3-fluorophenyl)ethyl]amino}-5-[N-(3-pyridylmethyl)carbamoyl](2-pyridyl))pyrrolidin-3-yl]carboxamide]",18.5 µM
8,"CN(C)[C@@H]1CCN(c2ccc(C(=O)NCc3cccnc3)c(NCCc3cccc(F)c3)n2)C1 [Compound 92, (6-[(3R)-3-(dimethylamino)pyrrolidinyl]-2-{[2-(3-fluorophenyl)ethyl]amino}(3-pyridyl))-N-(3-pyridylmethyl)carboxamide]",76 µM
9,"O=C(O)CC1CCN(c2ccc(C(=O)NCc3cccnc3)c(NCCc3cccc(F)c3)n2)C1 (stereo not drawn) [Compound 95, 2-[1-(6-{[2-(3-fluorophenyl)ethyl]amino}-5-[N-(3-pyridylmethyl)carbamoyl]-2-pyridyl)pyrrolidin-3-yl]acetic acid]",5.6 µM
10,"O=C(NCc1cccnc1)c1ccc(N2CCC(c3ccncc3)C2)nc1NCCc1cccc(F)c1 (stereo not drawn) [Compound 96, (2-{[2-(3-fluorophenyl)ethyl]amino}-6-(3-(4-pyridyl)pyrrolidinyl)(3-pyridyl))-N-(3-pyridylmethyl)carboxamide]",2.97 µM
11,"CNC(=O)CNC(=O)c1ccc(N2CCC(F)(F)C2)nc1NCCc1cccc(F)c1 [Compound 97, 2-[(6-(3,3-difluoropyrrolidinyl)-2-{[2-(3-fluorophenyl)ethyl]amino}(3-pyridyl))carbonylamino]-N-methylacetamide]",0.931 µM
12,"NCc1cccc(CNC(=O)c2ccc(N3CCCC3)nc2NCCc2cccc(F)c2)n1 [Compound 98, N-{[6-(aminomethyl)(2-pyridyl)]methyl}(2-{[2-(3-fluorophenyl)ethyl]amino}-6-pyrrolidinyl(3-pyridyl))carboxamide]",0.213 µM
13,"O=C(NCc1cccnc1)c1ccc(N2CCC(C(F)(F)F)C2)nc1NCCc1cccc(F)c1 (stereo not drawn) [Compound 99, (2-{[2-(3-fluorophenyl)ethyl]amino}-6-[3-(trifluoromethyl)pyrrolidinyl](3-pyridyl))-N-(3-pyridylmethyl)carboxamide]",2.49 µM
14,"O=C(NCc1cccnc1)c1ccc(N2CCC(F)(F)C2)nc1NCCc1cccc(F)c1 [Compound 100, (6-(3,3-difluoropyrrolidinyl)-2-{[2-(3-fluorophenyl)ethyl]amino}(3-pyridyl))-N-(3-pyridylmethyl)carboxamide]",0.274 µM
15,"NCc1cccc(CNC(=O)c2ccc(N3CCCCC3)nc2NCCc2cccc(F)c2)n1 [Compound 101, N-{[6-(aminomethyl)(2-pyridyl)]methyl}(2-{[2-(3-fluorophenyl)ethyl]amino}-6-piperidyl(3-pyridyl))carboxamide]",0.334 µM
16,"NCc1cccc(CNC(=O)c2ccc(N3CC[C@H](O)C3)nc2NCCc2cccc(F)c2)n1 [Compound 102, (6-((3S)-3-hydroxypyrrolidinyl)-2-{[2-(3-fluorophenyl)ethyl]amino}(3-pyridyl))-N-{[6-(aminomethyl)(2-pyridyl)]methyl}carboxamide]",3.07 µM
17,"NCc1cccc(CNC(=O)c2ccc(N3CC[C@@H](O)C3)nc2NCCc2cccc(F)c2)n1 [Compound 103, (6-((3R)-3-hydroxypyrrolidinyl)-2-{[2-(3-fluorophenyl)ethyl]amino}(3-pyridyl))-N-{[6-(aminomethyl)(2-pyridyl)]methyl}carboxamide]",2.22 µM

row,SMILES,IC50
1,"O=C(NCc1cccnc1)c1ccc(N2CC[C@@H](F)C2)nc1NCCc1cccc(F)c1 [Compound 104, (6-((3R)-3-fluoropyrrolidinyl)-2-{[2-(3-fluorophenyl)ethyl]amino}(3-pyridyl))-N-(3-pyridylmethyl)carboxamide]",0.107 µM
2,"NCC1CCN(c2ccc(C(=O)NCc3cccnc3)c(NCCc3cccc(F)c3)n2)CC1 [Compound 105, (6-[4-(aminomethyl)piperidyl]-2-{[2-(3-fluorophenyl)ethyl]amino}(3-pyridyl))-N-(3-pyridylmethyl)carboxamide]",39.1 µM
3,"CNC(=O)CNC(=O)c1ccc(N2CCCCC2)nc1NCCc1cccc(F)c1 [Compound 106, 2-[(2-{[2-(3-fluorophenyl)ethyl]amino}-6-piperidyl(3-pyridyl))carbonylamino]-N-methylacetamide]",1.12 µM
4,"CS(=O)(=O)C1CCN(c2ccc(C(=O)NCc3cccnc3)c(NCCc3cccc(F)c3)n2)C1 (stereo not drawn) [Compound 107, (2-{[2-(3-fluorophenyl)ethyl]amino}-6-[3-(methylsulfonyl)pyrrolidinyl](3-pyridyl))-N-(3-pyridylmethyl)carboxamide]",11.5 µM
5,"COC[C@@H]1CCCN1c1ccc(C(=O)NCc2cccnc2)c(NCCc2cccc(F)c2)n1 [Compound 108, (6-[(2S)-2-(methoxymethyl)pyrrolidinyl]-2-{[2-(3-fluorophenyl)ethyl]amino}(3-pyridyl))-N-(3-pyridylmethyl)carboxamide]",67.3 µM
6,"CC(C)(C)OC(=O)NCC1CCN(c2ccc(C(=O)NCc3cccnc3)c(NCCc3cccc(F)c3)n2)CC1 [Compound 109, (tert-butoxy)-N-{[1-(6-{[2-(3-fluorophenyl)ethyl]amino}-5-[N-(3-pyridylmethyl)carbamoyl](2-pyridyl))(4-piperidyl)]methyl}carboxamide]",4.56 µM
7,"CC(C)(C)OC(=O)NC1CCN(c2ccc(C(=O)NCc3cccnc3)c(NCCc3cccc(F)c3)n2)CC1 [Compound 110, (tert-butoxy)-N-[1-(6-{[2-(3-fluorophenyl)ethyl]amino}-5-[N-(3-pyridylmethyl)carbamoyl](2-pyridyl))(4-piperidyl)]carboxamide]",16.4 µM
8,"O=C(NCc1cccnc1)c1ccc(N2CCC(O)(c3ccccc3)CC2)nc1NCCc1cccc(F)c1 [Compound 111, (2-{[2-(3-fluorophenyl)ethyl]amino}-6-(4-hydroxy-4-phenylpiperidyl)(3-pyridyl))-N-(3-pyridylmethyl)carboxamide]",16.7 µM
9,"CCOC(=O)C1CCN(c2ccc(C(=O)NCc3cccnc3)c(NCCc3cccc(F)c3)n2)CC1 [Compound 112, ethyl 1-(6-{[2-(3-fluorophenyl)ethyl]amino}-5-[N-(3-pyridylmethyl)carbamoyl]-2-pyridyl)piperidine-4-carboxylate]",1.56 µM
10,"O=C(NCc1cccnc1)c1ccc(N2CC[C@H](F)C2)nc1NCCc1cccc(F)c1 [Compound 113, (6-((3S)-3-fluoropyrrolidinyl)-2-{[2-(3-fluorophenyl)ethyl]amino}(3-pyridyl))-N-(3-pyridylmethyl)carboxamide]",0.431 µM
11,"CNC(=O)C1CCN(c2ccc(C(=O)NCc3cccnc3)c(NCCc3cccc(F)c3)n2)CC1 [Compound 114, (2-{[2-(3-fluorophenyl)ethyl]amino}-6-[4-(N-methylcarbamoyl)piperidyl](3-pyridyl))-N-(3-pyridylmethyl)carboxamide]",11 µM
12,"O=C(NCc1cccnc1)c1ccc(N2CCC(O)CC2)nc1NCCc1cccc(F)c1 [Compound 115, (2-{[2-(3-fluorophenyl)ethyl]amino}-6-(4-hydroxypiperidyl)(3-pyridyl))-N-(3-pyridylmethyl)carboxamide]",0.756 µM
13,"O=C(NCc1cccnc1)c1ccc(N2CCNCC2)nc1NCCc1cccc(F)c1 [Compound 116, (2-{[2-(3-fluorophenyl)ethyl]amino}-6-piperazinyl(3-pyridyl))-N-(3-pyridylmethyl)carboxamide]",31.8 µM
14,"CC(=O)NC1CCN(c2ccc(C(=O)NCc3cccnc3)c(NCCc3cccc(F)c3)n2)C1 (stereo not drawn) [Compound 118, N-[1-(6-{[2-(3-fluorophenyl)ethyl]amino}-5-[N-(3-pyridylmethyl)carbamoyl]-2-pyridyl)pyrrolidin-3-yl]acetamide]",20.7 µM
15,"O=C(NCc1cccnc1)c1ccc(N2CCOC(CO)C2)nc1NCCc1cccc(F)c1 (stereo not drawn) [Compound 119, (2-{[2-(3-fluorophenyl)ethyl]amino}-6-[2-(hydroxymethyl)morpholin-4-yl](3-pyridyl))-N-(3-pyridylmethyl)carboxamide]",7.21 µM
16,"CN[C@H]1CCN(c2ccc(C(=O)NCc3cccnc3)c(NCCc3cccc(F)c3)n2)C1 [Compound 120, (6-[(3S)-3-(methylamino)pyrrolidinyl]-2-{[2-(3-fluorophenyl)ethyl]amino}(3-pyridyl))-N-(3-pyridylmethyl)carboxamide]",59.5 µM
